Source: PubChem BioAssay (NCI)
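Protocol summary: plate cells (96-well), add compound at 5 concentrations, incubate 48 h, interpolate endpoints linearly. GI50 = concentration required for 50% inhibition of growth. Definition used: TGI = concentration required for complete inhibition of growth.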

Assays:
Assay in all cases: NCI tumour cell line growth inhibition, 48 h
[1] = tested on: SF-539 CNS
[2] = tested on: HCC-2998 colon
[3] = tested on: CCRF-CEM leukemia
[4] = tested on: HCT-15 colon
[5] = tested on: A549 NSCLC
[6] = tested on: EKVX NSCLC
[7] = tested on: SK-MEL-5 melanoma
[8] = tested on: OVCAR-4 ovarian
[9] = tested on: RXF 393 renal
[10] = tested on: LOX IMVI melanoma
[11] = tested on: MALME-3M melanoma
[12] = tested on: NCI/ADR-RES ovarian
[13] = tested on: NCI-H226 lung
[14] = tested on: A498 renal
[15] = tested on: ACHN renal
[16] = tested on: UO-31 renal
[17] = tested on: OVCAR-3 ovarian
[18] = tested on: RPMI-8226 leukemia
[19] = tested on: BT-549 breast
[20] = tested on: TK-10 renal
[21] = tested on: OVCAR-8 ovarian
[22] = tested on: HS 578T breast
[23] = tested on: SF-295 CNS
[24] = tested on: SK-OV-3 ovarian
[25] = tested on: SK-MEL-28 melanoma
[26] = tested on: M14 melanoma
[27] = tested on: HT29 colon
[28] = tested on: SK-MEL-2 melanoma
[29] = tested on: SW-620 colon
[30] = tested on: IGROV1 ovarian
[31] = tested on: 786-0 renal
[32] = tested on: SNB-19 CNS
[33] = tested on: T-47D breast
[34] = tested on: SF-268 CNS
[35] = tested on: MDA-MB-435
[36] = tested on: HOP-92 NSCLC
[37] = tested on: HCT-116 colon
[38] = tested on: NCI-H23 lung
[39] = tested on: MDA-MB-231 breast
[40] = tested on: COLO 205 colon
[41] = tested on: UACC-62 melanoma
[42] = tested on: NCI-H522 lung
[43] = tested on: OVCAR-5 ovarian
[44] = tested on: PC-3 prostate
[45] = tested on: NCI-H460 lung
[46] = tested on: K-562 leukemia
[47] = tested on: KM12 colon
[48] = tested on: MCF7 breast
[49] = tested on: U251 CNS
[50] = tested on: DU-145 prostate
[51] = tested on: SNB-75 CNS
[52] = tested on: HOP-62 NSCLC
[53] = tested on: MOLT-4 leukemia
[54] = tested on: UACC-257 melanoma
[55] = tested on: CAKI-1 renal
[56] = tested on: HL-60(TB) leukemia
[57] = tested on: SN12C renal

Compound: Cc1ccc(-c2csc(/N=C3\C(=O)Nc4ccccc43)n2)cc1
- GI50 [1]: 1.71 µM
- TGI [1]: 3.45 µM
- GI50 [2]: 1.6 µM
- TGI [2]: 3.21 µM
- GI50 [3]: 1.78 µM
- TGI [3]: 5.4 µM
- GI50 [4]: 2.37 µM
- TGI [4]: 10.4 µM
- GI50 [5]: 2.98 µM
- TGI [5]: 11.3 µM
- GI50 [6]: 1.52 µM
- TGI [6]: 5.86 µM
- GI50 [7]: 1.63 µM
- TGI [7]: 3.02 µM
- GI50 [8]: 1.75 µM
- TGI [8]: 6.48 µM
- GI50 [9]: 1.49 µM
- TGI [9]: 3.16 µM
- GI50 [10]: 1.28 µM
- TGI [10]: 2.8 µM
- GI50 [11]: 1.52 µM
- TGI [11]: 3.4 µM
- GI50 [12]: 20.7 µM
- TGI [12]: > 100 µM
- GI50 [13]: 1.78 µM
- TGI [13]: 3.71 µM
- GI50 [14]: 1.71 µM
- TGI [14]: 3.53 µM
- GI50 [15]: 2.62 µM
- TGI [15]: 14.2 µM
- GI50 [16]: 1.96 µM
- TGI [16]: 22.4 µM
- GI50 [17]: 1.64 µM
- TGI [17]: 4.89 µM
- GI50 [18]: 1.05 µM
- TGI [18]: 4.29 µM
- GI50 [19]: 1.49 µM
- TGI [19]: 3.06 µM
- GI50 [20]: 2.52 µM
- TGI [20]: 5.15 µM
- GI50 [21]: 2.47 µM
- TGI [21]: 6.9 µM
- GI50 [22]: 1.97 µM
- TGI [22]: 6.66 µM
- GI50 [23]: 1.32 µM
- TGI [23]: 2.87 µM
- GI50 [24]: 1.61 µM
- TGI [24]: 3.55 µM
- GI50 [25]: 1.47 µM
- TGI [25]: 3.03 µM
- GI50 [26]: 1.32 µM
- TGI [26]: 2.79 µM
- GI50 [27]: 1.6 µM
- TGI [27]: 4.83 µM
- GI50 [28]: 1.63 µM
- TGI [28]: 3.69 µM
- GI50 [29]: 1.62 µM
- TGI [29]: 3.66 µM
- GI50 [30]: 1.53 µM
- TGI [30]: 4.55 µM
- GI50 [31]: 1.63 µM
- TGI [31]: 3.28 µM
- GI50 [32]: 1.52 µM
- TGI [32]: 3.19 µM
- GI50 [33]: 1.36 µM
- TGI [33]: 4.46 µM
- GI50 [34]: 1.52 µM
- TGI [34]: 3.5 µM
- GI50 [35]: 1.38 µM
- TGI [35]: 2.87 µM
- GI50 [36]: 1.24 µM
- TGI [36]: 3.29 µM
- GI50 [37]: 1.35 µM
- TGI [37]: 2.79 µM
- GI50 [38]: 1.46 µM
- TGI [38]: 2.98 µM
- GI50 [39]: 1.52 µM
- TGI [39]: 3.48 µM
- GI50 [40]: 1.31 µM
- TGI [40]: 3.23 µM
- GI50 [41]: 1.37 µM
- TGI [41]: 2.83 µM
- GI50 [42]: 1.51 µM
- TGI [42]: 3.49 µM
- GI50 [43]: 1.93 µM
- TGI [43]: 4.57 µM
- GI50 [44]: 1.08 µM
- TGI [44]: 2.82 µM
- GI50 [45]: 1.76 µM
- TGI [45]: 3.74 µM
- GI50 [46]: 1.73 µM
- TGI [46]: > 100 µM
- GI50 [47]: 1.86 µM
- TGI [47]: 4.51 µM
- GI50 [48]: 1.01 µM
- TGI [48]: 3.11 µM
- GI50 [49]: 1.46 µM
- TGI [49]: 3.05 µM
- GI50 [50]: 2.16 µM
- TGI [50]: 5.99 µM
- GI50 [51]: 1.17 µM
- TGI [51]: 2.85 µM

Compound: Cc1cc(S(=O)(=O)Nc2nc3cscc3c(=O)n2Cc2ccccc2)c(S)cc1Cl
- GI50 [1]: 32.1 µM
- TGI [1]: > 100 µM
- GI50 [2]: 18.9 µM
- TGI [2]: 68.5 µM
- GI50 [3]: 14 µM
- TGI [3]: > 100 µM
- GI50 [4]: 56.8 µM
- TGI [4]: > 100 µM
- GI50 [5]: 42.4 µM
- TGI [5]: > 100 µM
- GI50 [6]: 23.8 µM
- TGI [6]: > 100 µM
- GI50 [7]: 21.4 µM
- TGI [7]: > 100 µM
- GI50 [8]: > 100 µM
- TGI [8]: > 100 µM
- GI50 [9]: 36.2 µM
- TGI [9]: > 100 µM
- GI50 [10]: 23.2 µM
- TGI [10]: 51.6 µM
- GI50 [52]: 16.5 µM
- TGI [52]: 39.3 µM
- GI50 [11]: 28.7 µM
- TGI [11]: > 100 µM
- GI50 [12]: 53.4 µM
- TGI [12]: > 100 µM
- GI50 [13]: 60.1 µM
- TGI [13]: > 100 µM
- GI50 [14]: 46.6 µM
- TGI [14]: > 100 µM
- GI50 [15]: 52.6 µM
- TGI [15]: > 100 µM
- GI50 [16]: 51.8 µM
- TGI [16]: > 100 µM
- GI50 [17]: 32.2 µM
- TGI [17]: > 100 µM
- GI50 [18]: 26.7 µM
- TGI [18]: > 100 µM
- GI50 [19]: 81.1 µM
- TGI [19]: > 100 µM
- GI50 [20]: 35 µM
- TGI [20]: > 100 µM
- GI50 [21]: 55.7 µM
- TGI [21]: > 100 µM
- GI50 [22]: 65.6 µM
- TGI [22]: > 100 µM
- GI50 [53]: 3.94 µM
- TGI [53]: 32.5 µM
- GI50 [23]: 23.7 µM
- TGI [23]: > 100 µM
- GI50 [54]: > 100 µM
- TGI [54]: > 100 µM
- GI50 [55]: 45.4 µM
- TGI [55]: > 100 µM
- GI50 [25]: 74.3 µM
- TGI [25]: > 100 µM
- GI50 [26]: 61.3 µM
- TGI [26]: > 100 µM
- GI50 [27]: 47.9 µM
- TGI [27]: > 100 µM
- GI50 [29]: 26.6 µM
- TGI [29]: > 100 µM
- GI50 [56]: 44.1 µM
- TGI [56]: > 100 µM
- GI50 [30]: 64.9 µM
- TGI [30]: > 100 µM
- GI50 [31]: 24.3 µM
- TGI [31]: > 100 µM
- GI50 [32]: 29.1 µM
- TGI [32]: > 100 µM
- GI50 [33]: 4.53 µM
- TGI [33]: 90.8 µM
- GI50 [34]: 31 µM
- TGI [34]: > 100 µM
- GI50 [35]: 44.4 µM
- TGI [35]: > 100 µM
- GI50 [36]: > 100 µM
- TGI [36]: > 100 µM
- GI50 [57]: 16.6 µM
- TGI [57]: 54.5 µM
- GI50 [37]: 27.5 µM
- TGI [37]: > 100 µM
- GI50 [38]: 51.5 µM
- TGI [38]: > 100 µM
- GI50 [39]: 34 µM
- TGI [39]: > 100 µM
- GI50 [40]: > 100 µM
- TGI [40]: > 100 µM
- GI50 [41]: 50.5 µM
- TGI [41]: > 100 µM
- GI50 [42]: 81.6 µM
- TGI [42]: > 100 µM
- GI50 [43]: 87.1 µM
- TGI [43]: > 100 µM
- GI50 [44]: 35.6 µM
- TGI [44]: > 100 µM
- GI50 [45]: 28.8 µM
- TGI [45]: > 100 µM
- GI50 [46]: 74.1 µM
- TGI [46]: > 100 µM
- GI50 [47]: 21.9 µM
- TGI [47]: 74.7 µM
- GI50 [48]: 39.1 µM
- TGI [48]: > 100 µM
- GI50 [49]: 34.9 µM
- TGI [49]: > 100 µM
- GI50 [50]: 41 µM
- TGI [50]: > 100 µM
- GI50 [51]: > 100 µM
- TGI [51]: > 100 µM
